Measurements taken from patent US20230083012A1, “DIHYDROPYRIMIDINE DERIVATIVES AND USES THEREOF IN THE TREATMENT OF HBV INFECTION OR OF HBV-INDUCED DISEASES” (priority 2019, published 2023).

What was measured:
HBV = assay: Anti-HBV activity in HepG2.2.15 cells (HBV DNA in culture medium by qPCR); assay type: cell-based; settings: Hepatitis B virus, HepG2.2.15, 144 h, HepG2.2.15 cells, 6 days treatment, HBV DNA in culture medium quantified by real-time PCR; read-out: EC50
Method in brief: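 Secreted HBV DNA was measured by real-time PCR after 6-day compound exposure of HepG2.2.15 cells (2% FBS, 37 °C, re-dosed after 3 days), giving EC50 from 8-point 1:3 series starting at 10 or 1 uM. Cytotoxicity (CC50) run separately at lower cell density, top 100 uM.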

[1] = Cytotoxicity determination in HepG2.2.15 cells (CCK-8 cell viability); assay type: cell-based; settings: human, 6 days treatment, CCK-8 assay, highest concentration 100 uM
Method in brief: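 Viability measured by CCK-8 absorbance (450 nm, 630 nm reference, 2.5 h at 37° C) after six days of treatment, medium and compound renewed on day 3. Top concentration 100 uM, eight threefold dilutions in triplicate; cells plated at 5,000/well in 2% FBS medium; CC50 derived.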

COC(=O)C1=C(CN2CC(F)(F)[C@H]3[C@@H]2CCN3CCC(C)(C)C(=O)O)NC(c2nccs2)=N[C@H]1c1cccc(F)c1C (single isomer, unassigned) [Compound 136, 4-((cis)-6,6-difluoro-4-((6-(3-fluoro-2-methylphenyl)-5-(methoxycarbonyl)-2-(thiazol-2-yl)-3,6-dihydropyrimidin-4-yl)methyl)hexahydropyrrolo[3,2-b]pyrrol-1(2H)-yl)-2,2-dimethylbutanoic acid]
EC50 (HBV): 2.1 nM | CC50 at 6 days [1]: 34400 nM

CCOC(=O)C1=C(CN2CC(F)(F)[C@H]3[C@@H]2CN(C(C)=O)N3CCC(C)(C)C(=O)O)NC(c2nccs2)=N[C@H]1c1ccc(F)c(F)c1Cl (single isomer, unassigned) [Compound 77B, 4-((cis)-2-acetyl-4-((6-(2-chloro-3,4-difluorophenyl)-5-(ethoxycarbonyl)-2-(thiazol-2-yl)-3,6-dihydropyrimidin-4-yl)methyl)-6,6-difluorohexahydropyrrolo[3,2-c]pyrazol-1(2H)-yl)-2,2-dimethylbutanoic acid]
EC50 (HBV): 15 nM | CC50 at 6 days [1]: 17500 nM

CCOC(=O)C1=C(CN2CC(F)(F)[C@H]3CN([C@H](C)C(=O)O)C[C@H]32)NC(c2nccs2)=N[C@H]1c1cccc(F)c1C (single isomer, unassigned) [Compound 14E]
EC50 (HBV): 62.3 nM | CC50 at 6 days [1]: 85300 nM

COC(=O)C1=C(CN2CC(F)(F)C3CN(CC(C)(C)C(=O)O)CC32)NC(c2nccs2)=N[C@H]1c1cccc(F)c1C (single isomer, unassigned) [Compound 19B, 3-((cis)-3,3-difluoro-1-((6-(3-fluoro-2-methylphenyl)-5-(methoxycarbonyl)-2-(thiazol-2-yl)-3,6-dihydropyrimidin-4-yl)methyl)hexahydropyrrolo[3,4-b]pyrrol-5(1H)-yl)-2,2-dimethylpropanoic acid]
EC50 (HBV): 49.3 nM | CC50 at 6 days [1]: 24200 nM

CCOC(=O)C1=C(CN2C[C@H](F)[C@]3(F)C(=O)N(CC(C)(C)C(=O)O)C[C@H]23)NC(c2nccs2)=N[C@H]1c1cccc(F)c1C (single isomer, unassigned) [Compound 204B]
EC50 (HBV): 102 nM | CC50 at 6 days [1]: 72100 nM

CCOC(=O)C1=C(CN2CC(F)(F)[C@H]3[C@@H]2CCN3C[C@H]2C[C@@H](C(=O)O)C2)NC(c2nccs2)=N[C@H]1c1cccc(F)c1C (single isomer, unassigned) [Compound 143B]
EC50 (HBV): 4.6 nM | CC50 at 6 days [1]: 22800 nM

CCOC(=O)C1=C(CN2CC(F)(F)[C@H]3[C@@H]2CCN3CC[C@H]2C[C@@H](C(=O)O)C2)NC(c2nccs2)=N[C@H]1c1cccc(F)c1C (single isomer, unassigned) [Compound 129A]
EC50 (HBV): 7.7 nM | CC50 at 6 days [1]: 10300 nM

CCOC(=O)C1=C(CN2CC(F)(F)[C@@H]3C(=O)N(c4ccn(CCC(C)(C)C(=O)O)n4)C[C@@H]32)NC(c2nccs2)=N[C@H]1c1cccc(F)c1C (single isomer, unassigned) [Compound 187]
EC50 (HBV): 81.7 nM | CC50 at 6 days [1]: 33600 nM

CCOC(=O)C1=C(CN2CC(F)(F)[C@H]3[C@@H]2CCN3C2CC3(CC(C(=O)O)C3)C2)NC(c2nccs2)=N[C@H]1c1cccc(F)c1C (single isomer, unassigned) [Compound 113]
EC50 (HBV): 2.2 nM | CC50 at 6 days [1]: 12500 nM

CCOC(=O)C1=C(CN2CC(F)(F)[C@@H]3[C@H]2CON3CCC(C)(C)C(=O)O)NC(c2nccs2)=N[C@@H]1c1ccc(F)c(F)c1C (single isomer, unassigned) [Compound 164, (cis)-4-(4-((6-(3,4-difluoro-2-methylphenyl)-5-(ethoxycarbonyl)-2-(thiazol-2-yl)-3,6-dihydropyrimidin-4-yl)methyl)-6,6-difluorohexahydro-1H-pyrrolo[3,2-c]isoxazol-1-yl)-2,2-dimethylbutanoic acid]
EC50 (HBV): 3 nM | CC50 at 6 days [1]: > 25000 nM

COC(=O)C1=C(CN2CC(F)(F)[C@H]3[C@@H]2CCN3CCC(C)(C)C(=O)O)NC(c2nccs2)=N[C@H]1c1ccc(F)c(F)c1Cl (single isomer, unassigned) [Compound 126]
EC50 (HBV): 3.4 nM | CC50 at 6 days [1]: 27200 nM

CCOC(=O)C1=C(CN2CC(F)(F)[C@@H]3CN(C(=O)OC(C)(C)C(=O)O)C[C@@H]32)NC(c2nccs2)=N[C@H]1c1cccc(F)c1C (single isomer, unassigned) [Compound 60]
EC50 (HBV): 49.6 nM | CC50 at 6 days [1]: 29400 nM

CCOC(=O)C1=C(CN2CC(F)(F)[C@H]3CN(C[C@@H](C)C(=O)O)C[C@H]32)NC(c2nccs2)=N[C@H]1c1cccc(F)c1C (single isomer, unassigned) [Compound 15E]
EC50 (HBV): 22.5 nM | CC50 at 6 days [1]: 41700 nM

CCOC(=O)C1=C(CN2CC(F)(F)[C@@H]3CN(C(=O)NS(C)(=O)=O)C[C@@H]32)NC(c2nccs2)=N[C@H]1c1cccc(F)c1C (single isomer, unassigned) [Compound 31]
EC50 (HBV): 106 nM | CC50 at 6 days [1]: 85800 nM

CCOC(=O)C1=C(CN2CC(F)(F)C3CN(CC(C)(C)C(=O)O)CC32)NC(c2nccs2)=N[C@H]1c1cccc(F)c1C (stereo in doubt) [Compound 12, (cis)-3-(1-(((S)-5-(ethoxycarbonyl)-6-(3-fluoro-2-methylphenyl)-2-(thiazol-2-yl)-3,6-dihydropyrimidin-4-yl)methyl)-3,3-difluorohexahydropyrrolo[3,4-b]pyrrol-5(1H)-yl)-2,2-dimethylpropanoic acid]
EC50 (HBV): 32.4 nM | CC50 at 6 days [1]: 56700 nM

CCOC(=O)C1=C(CN2CC(F)(F)[C@@H]3[C@H]2CN(C)N3CCC(C)(C)C(=O)O)NC(c2nccs2)=N[C@H]1c1cccc(F)c1C (relative stereo) [Compound 68A, 4-(4-(((S)-5-(ethoxycarbonyl)-6-(3-fluoro-2-methylphenyl)-2-(thiazol-2-yl)-3,6-dihydropyrimidin-4-yl)methyl)-6,6-difluoro-2-methylhexahydropyrrolo[3,2-c]pyrazol-1(2H)-yl)-2,2-dimethylbutanoic acid]
EC50 (HBV): 7.4 nM | CC50 at 6 days [1]: 22200 nM

CCOC(=O)C1=C(CN2CC(F)(F)[C@H]3[C@@H]2CCN3CCC(C)(C)C(=O)O)NC(c2nccs2)=N[C@H]1c1ccc(F)c(F)c1Cl (single isomer, unassigned) [Compound 138, 4-((cis)-4-((6-(2-chloro-3,4-difluorophenyl)-5-(ethoxycarbonyl)-2-(thiazol-2-yl)-3,6-dihydropyrimidin-4-yl)methyl)-6,6-difluorohexahydropyrrolo[3,2-b]pyrrol-1(2H)-yl)-2,2-dimethylbutanoic acid]
EC50 (HBV): 0.5 nM | CC50 at 6 days [1]: 14500 nM

COC(=O)C1=C(CN2CC(F)(F)[C@@H]3C(=O)N(CC(C)(C)C(=O)O)C[C@@H]32)NC(c2ncoc2C)=N[C@H]1c1ccc(F)cc1Cl (single isomer, unassigned) [Compound 41, 3-((cis)-1-((6-(2-chloro-4-fluorophenyl)-5-(methoxycarbonyl)-2-(5-methyloxazol-4-yl)-3,6-dihydropyrimidin-4-yl)methyl)-3,3-difluoro-4-oxohexahydropyrrolo[3,4-b]pyrrol-5(1H)-yl)-2,2-dimethylpropanoic acid]
EC50 (HBV): 93.8 nM | CC50 at 6 days [1]: > 100000 nM

CCOC(=O)C1=C(CN2CC(F)(F)[C@@H]3[C@H]2CCN3CC(=O)O)NC(c2nccs2)=N[C@H]1c1cccc(F)c1C (single isomer, unassigned) [Compound 6A]
EC50 (HBV): 3.6 nM | CC50 at 6 days [1]: 30400 nM

CCOC(=O)C1=C(CN2CC(F)(F)[C@H]3[C@@H]2CCN3C[C@H](C)C(=O)O)NC(c2nccs2)=N[C@H]1c1ccc(F)cc1Cl (single isomer, unassigned) [Compound 135B, 3-((cis)-4-((6-(2-chloro-4-fluorophenyl)-5-(ethoxycarbonyl)-2-(thiazol-2-yl)-3,6-dihydropyrimidin-4-yl)methyl)-6,6-difluorohexahydropyrrolo[3,2-b]pyrrol-1(2H)-yl)-2-methylpropanoic acid]
EC50 (HBV): 9.9 nM | CC50 at 6 days [1]: 36300 nM

CCOC(=O)C1=C(CN2CC(F)(F)[C@H]3[C@@H]2CCN3CCC2(C(=O)O)CC2)NC(c2nccs2)=N[C@H]1c1cccc(F)c1C (single isomer, unassigned) [Compound 117]
EC50 (HBV): < 0.5 nM | CC50 at 6 days [1]: 24700 nM

COC(=O)C1=C(CN2CC(F)(F)[C@@H]3[C@H]2CN(C)N3CCC(C)(C)C(=O)O)NC(c2nccs2)=N[C@H]1c1ccc(F)cc1Cl (single isomer, unassigned) [Compound 94]
EC50 (HBV): 14 nM | CC50 at 6 days [1]: 25000 nM

COC(=O)C1=C(CN2CC(F)(F)[C@H]3[C@@H]2CCN3CCC(C)(C)C(=O)O)NC(c2nccs2)=N[C@H]1c1cccc(F)c1Cl (single isomer, unassigned) [Compound 128, 4-((cis)-4-((6-(2-Chloro-3-fluorophenyl)-5-(methoxycarbonyl)-2-(thiazol-2-yl)-3,6-dihydropyrimidin-4-yl)methyl)-6,6-difluorohexahydropyrrolo[3,2-b]pyrrol-1(2H)-yl)-2,2-dimethylbutanoic acid]
EC50 (HBV): 0.8 nM | CC50 at 6 days [1]: 40100 nM

[H][C@]1(N2CC[C@H]3[C@@H]2C(F)(F)CN3CC2=C(C(=O)OCC)[C@H](c3cccc(F)c3C)N=C(c3nccs3)N2)C[C@@]2(C[C@@H](C(=O)O)C2)C1 (single isomer, unassigned) [Compound 113A]
EC50 (HBV): 5 nM | CC50 at 6 days [1]: > 3000 nM

CCOC(=O)C1=C(CN2CC(F)(F)[C@H]3CN(CC(C)C(=O)O)C[C@H]32)NC(c2nccs2)=N[C@H]1c1cccc(F)c1C (single isomer, unassigned) [Compound 15B]
EC50 (HBV): 27.2 nM | CC50 at 6 days [1]: > 100000 nM

CCOC(=O)C1=C(CN2CC(F)(F)[C@H]3[C@@H]2CCN3CC[C@H]2C[C@H](C(=O)O)C2)NC(c2nccs2)=N[C@H]1c1cccc(F)c1C (single isomer, unassigned) [Compound 129B]
EC50 (HBV): 2.9 nM | CC50 at 6 days [1]: 12400 nM
